Assays:
Type in all cases: in vivo
[1] = system: Septoria tritici; experiment: Test E: wheat leaf blotch, preventive spray on wheat seedlings; details: Zymoseptoria tritici, 456 h, wheat seedlings sprayed to run-off, inoculated next day, rated after 48 h + 19 days, read-out: Percentage Disease Control Test E
Source text: General protocol for preparing test suspensions for Tests A-G: the test compounds were first dissolved in acetone in an amount equal to 11% of the final volume and then suspended at the desired concentration (in ppm) in acetone and purified water (50/50 mix by volume) containing 250 ppm of the surfactant Trem® 014 (polyhydric alcohol esters). The resulting test suspensions were then used in Tests A-G. Spraying a 200 ppm test suspension to the point of run-off on the test plants was the equivalent of a rate of 800 g/ha. The test suspension was sprayed to the point of run-off on wheat seedlings. The following day the seedlings were inoculated with a spore suspension of Septoria tritici (the causal agent of wheat leaf blotch) and incubated in a saturated atmosphere at 24° C. for 48 h, and then moved to a growth chamber at 20° C. for 19 days, after which time disease ratings were visually made. Results for Tests A-G are given in Table A. In the Table, a rating of 100 indicates 100% disease control and a rating of 0 indicates no disease control (relative to the controls). A dash (-) indicates no test results. All results are for 200 ppm except where followed by an “*”, which indicates 40 ppm.

[2] = system: Puccinia recondita f. sp. tritici; experiment: Test C: wheat leaf rust, spray the day after inoculation of wheat seedlings; details: Puccinia recondita, 120 h, wheat seedlings inoculated, sprayed the following day, rated after 5 days, read-out: Percentage Disease Control Test C;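 further: Curative spray on infected wheat seedlings with visual rating 5 days later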
Source text: General protocol for preparing test suspensions for Tests A-G: the test compounds were first dissolved in acetone in an amount equal to 11% of the final volume and then suspended at the desired concentration (in ppm) in acetone and purified water (50/50 mix by volume) containing 250 ppm of the surfactant Trem® 014 (polyhydric alcohol esters). The resulting test suspensions were then used in Tests A-G. Spraying a 200 ppm test suspension to the point of run-off on the test plants was the equivalent of a rate of 800 g/ha. Wheat seedlings were inoculated with a spore suspension of Puccinia recondita f. sp. tritici (the causal agent of wheat leaf rust) and incubated in a saturated atmosphere at 20° C. for 24 h. The following day, the test suspension was sprayed to the point of run-off on the wheat seedlings and then moved to a growth chamber at 20° C. for 5 days, after which time disease ratings were visually made. Results for Tests A-G are given in Table A. In the Table, a rating of 100 indicates 100% disease control and a rating of 0 indicates no disease control (relative to the controls). A dash (-) indicates no test results. All results are for 200 ppm except where followed by an “*”, which indicates 40 ppm.

[3] = system: Alternaria solani; experiment: Test G: tomato early blight, preventive spray on tomato seedlings; details: Alternaria solani, topical, 168 h, tomato seedlings sprayed to run-off, inoculated next day, rated after 48 h + 5 days, read-out: Percentage Disease Control Test G
Source text: General protocol for preparing test suspensions for Tests A-G: the test compounds were first dissolved in acetone in an amount equal to 11% of the final volume and then suspended at the desired concentration (in ppm) in acetone and purified water (50/50 mix by volume) containing 250 ppm of the surfactant Trem® 014 (polyhydric alcohol esters). The resulting test suspensions were then used in Tests A-G. Spraying a 200 ppm test suspension to the point of run-off on the test plants was the equivalent of a rate of 800 g/ha. The test suspension was sprayed to the point of run-off on tomato seedlings. The following day the seedlings were inoculated with a spore suspension of Alternaria solani (the causal agent of tomato early blight) and incubated in a saturated atmosphere at 27° C. for 48 h, and then moved to a growth chamber at 24° C. for 5 days, after which time disease ratings were visually made. Results for Tests A-G are given in Table A. In the Table, a rating of 100 indicates 100% disease control and a rating of 0 indicates no disease control (relative to the controls). A dash (-) indicates no test results. All results are for 200 ppm except where followed by an “*”, which indicates 40 ppm.

[4] = system: Erysiphe graminis f. sp. tritici; experiment: Test A: wheat powdery mildew, preventive spray on wheat seedlings; details: Blumeria graminis, 192 h, wheat seedlings sprayed to run-off, inoculated next day, rated after 8 days, 100 = 100% disease control, 0 = no control, read-out: Percentage Disease Control Test A
Source text: General protocol for preparing test suspensions for Tests A-G: the test compounds were first dissolved in acetone in an amount equal to 11% of the final volume and then suspended at the desired concentration (in ppm) in acetone and purified water (50/50 mix by volume) containing 250 ppm of the surfactant Trem® 014 (polyhydric alcohol esters). The resulting test suspensions were then used in Tests A-G. Spraying a 200 ppm test suspension to the point of run-off on the test plants was the equivalent of a rate of 800 g/ha. The test suspension was sprayed to the point of run-off on wheat seedlings. The following day the seedlings were inoculated with a spore dust of Erysiphe graminis f. sp. tritici, (the causal agent of wheat powdery mildew) and incubated in a growth chamber at 20° C. for 8 days, after which time disease ratings were visually made. Results for Tests A-G are given in Table A. In the Table, a rating of 100 indicates 100% disease control and a rating of 0 indicates no disease control (relative to the controls). A dash (-) indicates no test results. All results are for 200 ppm except where followed by an “*”, which indicates 40 ppm.

[5] = system: Septoria nodorum; experiment: Test D: wheat glume blotch, preventive spray on wheat seedlings; details: Parastagonospora nodorum, 216 h, wheat seedlings sprayed to run-off, inoculated next day, rated after 48 h + 7 days, read-out: Percentage Disease Control Test D
Source text: General protocol for preparing test suspensions for Tests A-G: the test compounds were first dissolved in acetone in an amount equal to 11% of the final volume and then suspended at the desired concentration (in ppm) in acetone and purified water (50/50 mix by volume) containing 250 ppm of the surfactant Trem® 014 (polyhydric alcohol esters). The resulting test suspensions were then used in Tests A-G. Spraying a 200 ppm test suspension to the point of run-off on the test plants was the equivalent of a rate of 800 g/ha. The test suspension was sprayed to the point of run-off on wheat seedlings. The following day the seedlings were inoculated with a spore suspension of Septoria nodorum (the causal agent of wheat glume blotch) and incubated in a saturated atmosphere at 20° C. for 48 h, and then moved to a growth chamber at 20° C. for 7 days, after which time disease ratings were visually made. Results for Tests A-G are given in Table A. In the Table, a rating of 100 indicates 100% disease control and a rating of 0 indicates no disease control (relative to the controls). A dash (-) indicates no test results. All results are for 200 ppm except where followed by an “*”, which indicates 40 ppm.

Structure (SMILES)	pest or weed control at 40 ppm ([1]; 40 ppm (value followed by *)) [%]	pest or weed control at 200 ppm [2] [%]	pest or weed control at 200 ppm [3] [%]	pest or weed control at 200 ppm [4] [%]	pest or weed control at 200 ppm [5] [%]	pest or weed control at 200 ppm [1] [%]
CC(=O)NCc1cc(-c2ccn(-c3ccc4c(c3)CCCO4)n2)ccc1Cl [Compound 2, N-[[2-chloro-5-[1-(3,4-dihydro-2H-1-benzopyran-6-yl)-1H-pyrazol-3-yl]-phenyl]methyl]acetamide]	97	88	53	84	100	
O=CNCc1cc(-c2ccn(-c3ccc4c(c3)CCCO4)n2)ccc1Cl [Compound 3, N-[[2-chloro-5-[1-(3,4-dihydro-2H-1-benzopyran-6-yl)-1H-pyrazol-3-yl]-phenyl]methyl]formamide]		0	0	0	99	78
CNC(=O)NCc1cc(-c2ccn(-c3ccc4c(c3)CCCO4)n2)ccc1Cl [Compound 4, N-[[2-chloro-5-[1-(3,4-dihydro-2H-1-benzopyran-6-yl)-1H-pyrazol-3-yl]-phenyl]methyl]-N′-methylurea]		53	0	0	82	0
COC(=O)NCc1cc(-n2ccc(-c3ccc4c(c3)CCCO4)n2)ccc1Cl [Compound 5, methyl N-[[2-chloro-5-[3-(3,4-dihydro-2H-1-benzopyran-6-yl)-1H-pyrazol-1-yl]phenyl]methyl]carbamate]		100	0	100	100	100
COC(=O)NCc1cc(-n2ccc(-c3ccc4c(c3)OCO4)n2)ccc1Cl [Compound 6, methyl N-[[5-[3-(1,3-benzodioxol-5-yl)-1H-pyrazol-1-yl]-2-chlorophenyl]-methyl]carbamate]		100	95	100	100	99
COC(=O)NCc1cc(-n2ccc(-c3ccc4c(c3)OCCO4)n2)ccc1Cl [Compound 7, methyl N-[[2-chloro-5-[3-(2,3-dihydro-1,4-benzodioxin-6-yl)-1H-pyrazol-1-yl]-phenyl]methyl]carbamate]		100	97	100	100	100
CC(=O)NCc1cc(-n2ccc(-c3ccc4c(c3)CCCO4)n2)ccc1Cl [Compound 8, N-[[2-chloro-5-[3-(3,4-dihydro-2H-1-benzopyran-6-yl)-1H-pyrazol-1-yl]phenyl]methyl]acetamide]		26	91	0	100	98
CNC(=O)NCc1cc(-n2ccc(-c3ccc4c(c3)CCCO4)n2)ccc1Cl [Compound 9, N-[[2-chloro-5-[3-(3,4-dihydro-2H-1-benzopyran-6-yl)-1H-pyrazol-1-yl]phenyl]methyl]-N′-methylurea]		8	9	0	100	79
COC(=O)NCc1cc(-n2ccc(-c3ccc4c(c3)CCCO4)n2)ccc1F [Compound 11, methyl N-[[5-[3-(3,4-dihydro-2H-1-benzopyran-6-yl)-1H-pyrazol-1-yl]-2-fluorophenyl]methyl]carbamate]		100	40	100	100	100
COC(=O)NCc1cc(-c2ccn(-c3ccc4c(c3)CCCO4)n2)ccc1F [Compound 12, methyl N-[[5-[1-(3,4-dihydro-2H-1-benzopyran-6-yl)-1H-pyrazol-3-yl]-2-fluorophenyl]methyl]carbamate]		100	88	100	100	100
COC(=O)NCc1cc(-c2ccn(-c3ccc4c(c3)CCCO4)n2)ccc1C [Compound 20, methyl N-[[5-[1-(3,4-dihydro-2H-1-benzopyran-6-yl)-1H-pyrazol-3-yl]-2-methylphenyl]methyl]carbamate]		100	90	99	100	100
COC(=O)NCc1cc(-c2ccn(-c3ccc4c(c3)C=C(C(=O)OC)CO4)n2)ccc1Cl [Compound 23, methyl 6-[3-[4-chloro-3-[[(methoxycarbonyl)amino]methyl]phenyl]-1H-pyrazol-1-yl]-2H-1-benzopyran-3-carboxylate]		0	0	0	73	0
COC(=O)NCc1cc(-c2ccn(-c3ccc4c(c3)C=C(C(=O)O)CO4)n2)ccc1Cl [Compound 24, 6-[3-[4-chloro-3-[[(methoxycarbonyl)amino]methyl]phenyl]-1H-pyrazol-1-yl]-2H-1-benzopyran-3-carboxylic acid]		0	0	0	89	0

Reference: US8921360B2, “Heterobicycle-substituted azolyl benzene fungicides” (priority 2009, dated 2014)
